{"source": "patent US20210393742A1", "about": "“LONG-ACTING INTERLEUKIN-15 RECEPTOR AGONIST IN COMBINATION WITH ANOTHER PHARMACOLOGICALLY ACTIVE AGENT” (Nektar Therapeutics, priority 2018, published 2021)", "key": {"CD56+ human NK cells": {"system": "CD56+ human NK cells", "assay": "Human NK cell proliferation in CFSE labeled PBMCs (Example 5)", "type": "cell-based", "conditions": "5 days; Conjugate 1 100 ng/ml; plate coated with hIgG 0.1 mg/ml", "experimental": "NK cell proliferation within a human peripheral blood mononuclear cell (PBMCs) labeled with CFSE preparation was induced in vitro. The CFSE labeled PBMCs were incubated for 5 days in vitro in the presence of (i) mono(methoxyPEG-N-butanamide)40 kD interleukin-15 (Conjugate 1) at a concentration of 100 ng/ml; (ii) on cell culture plastic that had been prior coated overnight with human total immunoglobulin G (hIgG) solution at a concentration of 0.1 mg/ml (iii) on cell culture plastic that had been prior coated overnight with human total immunoglobulin G (hIgG) solution at a concentration of 0.1 mg/ml and in the presence of Conjugate 1 at a concentration of 100 ng/ml; or (iv) on regular cell culture plastic. After the incubation period, cell proliferation as indicated by the decrease of CFSE in the cells that had undergone cell doublings was measured with flow cytometry (FIGS. 8A-8D) measuring CFSE levels in CD56+ human NK cells within the PBMCs preparation in each of the four incubation conditions."}, "[1]": {"system": "human multiple myeloma RPMI-8226 cells", "assay": "NK cell cytotoxicity (ADCC) against daratumumab pre-coated RPMI-8226 cells (Example 9)", "type": "cell-based", "conditions": "NK cells primed with 1000 ng/mL overnight; targets pre-coated with daratumumab 100 ng/mL; E:T 10:1, 3 hr", "experimental": "(§1) Human NK cells were magnetically sorted from normal donor PBMCs using negative selection. NK cells were seeded in a 96-well U-bottom plate at a density of 400,000 cells/well. NK cells were stimulated with 1000 ng/mL of a long-acting IL-15 receptor agonist (mono(mPEG-butanamide)IL-15) (+) or left unstimulated (−) in complete RPMI-1640 media supplemented with 10% fetal bovine serum (FBS) and 1% antibiotic/antimycotic overnight at 37° C. in 5% CO2.\nThe human multiple myeloma RPMI-8226 cells (ATCC #CCL-155) were washed in PBS and stained with 0.15 μM CFSE for 5 min at 37° C. The tumor cells were pre-coated with 100 ng/mL daratumumab (+) for 1 hr at 37° C. where indicated. The stimulated NK cells (effector cells) and the pre-coated CFSE-labeled tumor cells (target cells) were co-cultured in an E:T ratio of 10:1 for 3 hr at 37° C. in 5% CO2. Following incubation, cells were washed in flow staining buffer, Fc-blocked for 15 min at 4° C., and surface-stained (CD45, CD56, CD3-fluorescently conjugated antibodies). The cells were washed in PBS and incubated in 7-aminoactinomycin (7-AAD) viability stain for 30 minutes at 4° C. before acquiring for flow cytometric analysis using a Fortessa (BD). The percentage of 7-AAD+CFSE+ target cells from total cell population is the percentage for dead tumor cells."}, "[2]": {"system": "human B cell lymphoma (Daudi) cells", "assay": "ADCC of rituximab-coated target cells by primed human NK cells (Example 12)", "type": "cell-based", "conditions": "NK cells primed with 300 ng/mL overnight; rituximab 10 ng/mL; E:T 2:1, 3 hr", "experimental": "Human NK cells were magnetically sorted from normal donor PBMCs using negative selection. NK cells were seeded in a 96-well U-bottom plate at a density of 80,000 cells/well (FIG. 15A) OR 400,000 cells/well (FIG. 15B). NK cells were stimulated with 300 ng/mL of a long-acting IL-15 receptor agonist (mono(mPEG-butanamide)IL-15) (+) or left unstimulated (−) in complete RPMI-1640 media supplemented with 10% fetal bovine serum (FBS) and 1% antibiotic/antimycotic overnight at 37° C. in 5% CO2.\nAlternatively, the human B cell lymphoma (Daudi) cells were washed in PBS and stained with 0.3 μM CFSE for 5 min at 37° C. The rituximab-coated (+10 ng/mL) CFSE-labeled tumor (target cells) cells were concurrently co-cultured with the NK cells (effector cells) in an E:T ratio of 2:1 for 3 hr at 37° C. in 5% CO2. Following incubation, cells were washed in flow staining buffer, Fc-blocked for 15 min at 4° C., and surface-stained (CD45, CD56, CD3-fluorescently conjugated antibodies). The cells were washed in PBS and incubated in 7-aminoactinomycin (7-AAD) viability stain for 30 minutes at 4° C. before acquiring for flow cytometric analysis using a Fortessa (BD). The percentage of 7-AAD+ CFSE+ target cells from total cell population is the percentage for dead tumor cells."}, "[3]": {"system": "H1975 lung carcinoma cells", "assay": "Tumor growth in H1975 lung tumor model (Example 17)", "type": "in vivo, mice", "conditions": "day 27 after treatment initiation; cetuximab 0.25 mg/kg IP x3; Compound 1 0.3 mg/kg IV x3", "experimental": "Delay in loss of tumor growth control was evaluated on day 27 after treatment initiation."}, "HCT-116 cells": {"system": "HCT-116 cells", "assay": "ADCC of cetuximab-coated HCT-116 cells by primed human NK cells (Example 20)", "type": "cell-based", "conditions": "NK cells primed with 300 ng/mL overnight; cetuximab 30 ug/mL; E:T 10:1, 3 hours", "experimental": "as §1, with “mono(methoxyPEG-N-butanamide)40 kD interleukin-15 (Compound 1) (300 ng/mL)” for “1000 ng/mL of a long-acting IL-15 receptor agonist (mono(mPEG-butanamide)IL-15)”\nThe colonic human HCT-116 cells (ATCC #CCL-247) were cultured McCoy 5A media (ATCC+30-2007) supplemented with 10% fetal bovine serum (FBS) and 1% antibiotic/antimycotic at 37° C. in 5% CO2. HCT-116 cells were subcultured by incubating in 0.25% Trypsin-0.53 mM EDTA for 5 min at 37° C., washed in sterile PBS, resuspended in culture media, counted, and co-cultured with the NK cells using an effector:target (E:T) of 10:1. […] Following incubation, cells were washed in flow staining buffer, Fc-blocked for 15 min at 4° C., and surface-stained (EpCAM, CD45, CD56, CD3-fluorescently conjugated antibodies) for 20 min at 4° C. in the dark. The cells were washed in PBS and incubated in 7-aminoactinomycin (7-AAD) viability stain for 30 minutes at 4° C. before acquiring for flow cytometric analysis using a Fortessa (BD). The percentage of 7-AAD+CD45-EpCAM+ target cells from total cell population is the percentage for dead tumor cells."}, "NCI-N87 cells": {"system": "NCI-N87 cells", "assay": "Tumor growth inhibition in NCI-N87 gastric carcinoma model (Example 22)", "type": "in vivo, mice", "conditions": "25 days after treatment initiation; trastuzumab 3/1/1 mg/kg IV; Compound 1 0.3 mg/kg IV x3", "experimental": "Tumor growth inhibition in inoculated mice was measured 25 days after treatment initiation. Results are provided graphically in FIG. 25."}}}
{"substance": "mono(methoxyPEG-N-butanamide)40 kD interleukin-15 [Conjugate 1]", "values": [{"measurement": "% CD56+ NK cells proliferating", "setting": "CD56+ human NK cells", "value": 49.7, "unit": "%"}, {"measurement": "ADCC, % 7-AAD+ target cells", "setting": "[1]", "value": "enhanced ADCC of daratumumab pre-coated multiple myeloma cells"}, {"measurement": "ADCC, % 7-AAD+ target cells", "setting": "[2]", "value": "enhance ADCC"}, {"measurement": "tumor growth control", "setting": "[3]", "value": "no tumor growth inhibition"}, {"measurement": "ADCC, % 7-AAD+CD45-EpCAM+ target cells", "setting": "HCT-116 cells", "value": "enhance ADCC of cetuximab-coated human solid tumor cells"}, {"measurement": "tumor growth inhibition", "setting": "NCI-N87 cells", "value": "no tumor growth inhibition"}]}
